Columns and labels:
[1] = Solubility of catalyst in organic solvents; format: physicochemical
[2] = Gelation time in polyurethane synthesis model reaction with tin catalyst; details: for Catalyst effect 65°C: gel time with no catalyst (2580 seconds) divided by gel time with 0.5 mol % of the catalyst; for Catalyst effect 90C: gel time with no catalyst (750 seconds) divided by gel time with 0.5 mol % of the catalyst; for Latency: latent if gelation did not occur at room temperature for two hours at a catalyst concentration of 1 mol%; for Gelation time In argon t, s (65ºC) / Gelation time On air t, s (65ºC): 65 °C; for Gelation time In argon t, s (90ºC) / Gelation time On air t, s (90ºC): 90 °C
Experimental: A method for using the above-mentioned tin(IV) complexes to produce polyurethane is described in the following. The method consists of adding a solution of the above-mentioned catalyst in an organic solvent (THF) to a two-component mixture at a given temperature. The method is explained by examples of its implementation: Specifically, to a vigorously stirred solution of 4.5 ml (5.1 g, 8.4 mmol) polyethyleneglycol-600 1.35 ml (1.40 g, 8.3 mmol), hexamethylene diisocyanate was added (temperature control was performed by thermostating the reaction mixture at room temperature, 65°C, 90°C before adding the catalyst), and then the solution of the catalyst to be tested in 0.25 ml in THF was added as fast as possible. The flask with the reactants then was put into an oil bath at room temperature, 65°C or 90°C (depending on the experiment), and then time count was started. The end of reaction was defined as the stop of the magnetic stirrer. The time from start to stop is taken as the gelation time. Experiments conducted in air and in an inert gas atmosphere at different temperatures were compared.
The molar concentration of the catalyst is given with respect to the molar amount of the polyisocyanate. Table 1: Gelation time with selected tin catalysts.

[3] = Stability in ambient / moist air (visible change of powder on dry surface); format: physicochemical; details: for Air stability: powder poured onto a dry surface, left in ambient air
Text: (§1) The alkoxy-based tin complexes (DMAE)2Sn(OtBu)2 and (DMAEIDE)Sn(OtBu)2 were obtained using procedures similar to the synthesis of the phenoxy-complexes. These complexes are stable under dry conditions.
(§2) Of special stability are complexes based on tetradentate Salen and Salan type ligands such as: […]

[4] = Stability on dissolution in wet organic solvent; format: physicochemical; details: wet / moist organic solvent
Text: as §1, §2

Compound	Solubility Alkanes [1]	Solubility CH2Cl2/CHCl3 [1]	Solubility PhMe [1]	Solubility THF [1]	Catalyst effect 65°C [2]	Catalyst effect 90C [2]	Latency [2]	Air stability [3]	gel time compared with no catalyst ([2]; 0.1 mol% concentration, under air)	Gelation time In argon t, s (65ºC) ([2]; c 0.1 % mol.)	Gelation time In argon t, s (90ºC) ([2]; c 0.1 % mol.)	Gelation time On air t, s (65ºC) ([2]; c 0.1 % mol.)	Gelation time On air t, s (90ºC) ([2]; c 0.1 % mol.)	Gelation time In argon t, s (65ºC) ([2]; c 1 % mol.)	Gelation time In argon t, s (90ºC) ([2]; c 1 % mol.)	Gelation time On air t, s (65ºC) ([2]; c 1 % mol.)	Gelation time On air t, s (90ºC) ([2]; c 1 % mol.)	Hygroscopicity [3]	Visible change of powder in moist air ([3]; powder poured on a dry surface in moist air)	Decomposition on dissolution in wet organic solvent [4]
CC(C)(C)[O][Sn]1([O]C(C)(C)C)[O]c2c(cc(C(C)(C)C)cc2C(C)(C)C)CN2CCN(CC2)Cc2cc(C(C)(C)C)cc(C(C)(C)C)c2[O]1	+- (less than 0.01 mol/L)	+++ (higher than 1.0 mol/L)	+++ (higher than 1.0 mol/L)	++ (between 0.1 and 1.0)	5.7	2.8	yes	excellent (Excellent stability was attributed to compounds for which no visible change was found within 24 hours)												
CN1Cc2cc(C(C)(C)C)cc(C(C)(C)C)c2[O][Sn]2([O]c3c(cc(C(C)(C)C)cc3C(C)(C)C)C1)[O]c1c(cc(C(C)(C)C)cc1C(C)(C)C)CN(C)Cc1cc(C(C)(C)C)cc(C(C)(C)C)c1[O]2	++ (between 0.1 and 1.0)	+++ (higher than 1.0 mol/L)	+++ (higher than 1.0 mol/L)	+++ (higher than 1.0 mol/L)	2.4	3.8	yes	good (If there was no visible change within an hour, such as discoloration or melting into droplets due to hygroscopicity, then the stability of the compound was considered good)												
C1=NCC[O][Sn]2([O]CCN=Cc3ccccc3[O]2)[O]c2ccccc21 (stereo not drawn)	+- (less than 0.01 mol/L)	+- (less than 0.01 mol/L)	+ (between 0.01 and 0.1 mol/L)	+ (between 0.01 and 0.1 mol/L)	12.3	6.3	yes	good (If there was no visible change within an hour, such as discoloration or melting into droplets due to hygroscopicity, then the stability of the compound was considered good)												
CN(C)CC[O][Sn]([O]CCN(C)C)([O]C(C)(C)C)[O]C(C)(C)C [(DMAE)2Sn(OtBu)2, reference compound]									the same as for no catalyst	410 s	185 s	2580 s	750 s	230 s	150 s	540 s	280 s	rather hygroscopic	change their appearance within half an hour	instantly leads to the decomposition

Source: patent EP4534577A1, “NON-TOXIC LATENT POLYMERIZATION CATALYSTS FOR POLYURETHANES BASED ON TIN (IV) CHELATE COMPLEXES” (Tech Synt Ltd, priority 2023, dated 2025)
